The results in this text go back to ChEMBL document CHEMBL1151299, “Flavonoids with anti-cataract activity from Brickellia arguta” (J Nat Prod, 1984).

In assay [1] the target is Aldo-keto reductase family 1 member B1 (Rattus norvegicus) (UniProt P07943). In words: Inhibition of rat lens aldose reductase at 10 uM.
Assay [2] shares this target. The assay can be described thus: Inhibition of rat lens aldose reductase at 1 uM.
Assay [3] shares this target. The assay can be described thus: Inhibition of rat lens aldose reductase at 0.1 uM.

Structures are written as SMILES.

As usually defined, the inhibition is the drop in the measured response relative to a control, in per cent. For the compound `O=C(O)CN1C(=O)c2cccc3cccc(c23)C1=O`, the inhibition in assay [1] stood at 0%; in assay [2], 40%.
Take `COc1c(O)cc2oc(-c3ccc(O)c(O)c3)c(O[C@@H]3O[C@H](CO)[C@H](O)[C@H](O)[C@H]3O)c(=O)c2c1O`: the figures for the inhibition in assay [1], in assay [2] and in assay [3] were 7%, 38% and 84%, respectively.
Taken in the same sequence, the figures for `COc1c(O)cc2oc(-c3ccc(O)c(O)c3)c(O[C@@H]3O[C@H](CO[C@@H]4O[C@@H](C)[C@H](O)[C@@H](O)[C@H]4O)[C@H](O)[C@H](O)[C@H]3O)c(=O)c2c1O` were 11%, 33% and 86%.
Consider `COc1c(O)cc2oc(-c3ccc(O)cc3)c(O[C@@H]3O[C@H](CO[C@@H]4O[C@@H](C)[C@H](O)[C@@H](O)[C@H]4O)[C@H](O)[C@H](O)[C@H]3O)c(=O)c2c1O`, for which the inhibition in assay [1] stood at 9%; in assay [2], 32%; in assay [3], 63%.
